Measurements from patent US9796755B2, “Methods of treating depression and other related diseases” (Northwestern University, priority 2009, dated 2017).

How the values were obtained:
[1] = test system: patients suffering with refractory depression; settings: cited from earlier work
[2] = literature (Bristow et al. 1996; Parsons et al. 1997); cited from earlier work
rats [3] = assay: Porsolt test (Forced Swim Test), systemic dosing; type: in vivo, rat
Procedure: For the evaluation of the antidepressant actions of GLYX-13, the effect of GLYX-13 in the Porsolt test of depression was examined in rats. Porsolt testing is the most commonly used test for assessment of depression in animal model, Porsolt testing, also known as Forced Swim Test, is based on a behavioral trait that is sensitive to changes in affective state. During this test, the animal is placed in a tank (18 cm diameter×45 cm height) filled to 30 cm with 22-23° C. water. After placing the animal in the tank, the amount of time for which the rat is immobile when it stops struggling is measured. Porsolt test is based on the fact that antidepressants increase the latency to immobility and decrease the time for which the rat is immobile. […] The interpretation of the Porsolt test is that the antidepressants reinstate active coping mechanisms and decrease the passive immobility evoked by stress.
In order to evaluate the effectiveness of GLYX-13 as antidepressant, three month old FBNF1 rats were separated into two groups of 9 animals. The first group of rats was intravenously injected with 10 mg/kg GLYX-13 and the second group of animals was intravenously injected with PBS vehicle (1 ml/kg) in a blind manner via chronic subdural femoral vein access ports. Both groups of animals were injected 10 to 15 minutes before the start of testing.
For Porsolt testing, animals were given a 15 minute pre-test habituation in the tank to induce learned helplessness on day one. Following this, on the subsequent day, the animals were injected with GLYX-13 or vehicle 10-15 minutes before being placed into the tank for a 5 minute test session. After placing the animals in the tank, the amount of time for which each animal is immobile when it stops struggling (Mean Immobility Time) was measured. Decrease in Mean Immobility Time is a measure of the effectiveness of the antidepressant.
A second experiment was performed in the same manner as Example 1, except that 2-3 month Sprague-Dawley rats were used, and treated with either intravenous (1, 3, 10, 32 mg/kg), subcutaneous (1, 3, 10, 32, 56, 100 mg/kg) injections of GLYX-13 or saline vehicle (1 mg/ml) 15 (i,v.) or 20 (s.c.) min before the start of the final 5 min test session. Ketamine (10 mg/kg i.p.) was given 60 min befbre the start of testing (Garcia et al., (2008) Prog Neuropsychopharmacol Biol Psychiatry, 32, 140-144).
To determine whether the antidepressant effect of GLYX-13 was specific to the sequence of the GLXY-13 peptide, mean time (sec) spent floating in the Porsolt test was determined in groups of 12 three-month old Sprague Dawley rats administered with GLYX-13 (TPPT-NH2 (SEQ ID NO: 13); 3 mg/kg , i.v. tail vein), a scrambled peptide (PTPT-NH3(SEQ ID NO: 19); 3 mg/kg i.v. tail vein), or 0.9% saline vehicle (1 ml/kg, i.v. tail vein). Administration occurred 60 min before the 5 min testing session. Animals received a 15 min training swim session one day before dosing.
To evaluate whether the anti-depressive and anxiolytic effects of GLYX-13 would persist beyond a few hours, rats were tested in the Porsolt test and the Open Field test, described above. Groups of 10-11 three-month old Sprague-Dawley rats were pretreated with GLYX-13 (3 mg/kg i.v.), ketamine (10 mg/kg i.v.) or saline vehicle injection (1 mg/ml i.v. tail vein) 96 hrs before the start of testing. Animals received a single 15 min. training swim session one day before dosing. Animals were tested 96 hrs post dosing in the Porsolt test without any testing during the intervening period. Open field testing was conducted without pre-habituation 1 day after Porsolt testing (i.e. 120 hrs post dosing). Mean(±SEM) time (sec.) spent floating in the Porsolt test, time spent in the center compartment (sec.), and line crosses in the open field test were determined.
The Porsolt test adapted for use in rats was performed as above. […]

rats [4] = assay: Drug discrimination in rats trained to discriminate ketamine from saline
Procedure: Testing was conducted as described previously (Nicholson K L & Balster R L (2009) The discriminative stimulus effects of N-methyl-D-aspartate glycine-site ligands in NMDA antagonist-trained rats. Psychopharmacology (Berl) 203(2):441-451). Adult male Sprague Dawley rats were trained to discriminate ketamine (10 mg/kg IP) from saline. Animals were then tested following various doses of GLYX-13 administration (3-156 mg/kg SC) and the percent of ketamine lever responding and rates of responding were recorded.

[5] = test system: glycogen synthase kinase 3β (GSK-3β); assay: Total and phosphoserine-9 GSK-3β by ELISA in medial prefrontal cortex; type: in vivo, rat; settings: 24 hrs after GLYX-13 3 mg/kg IV or ketamine 10 mg/kg IV
Excerpt: (§1) Total and Phosphoserine-9 glycogen synthase kinase 3β (GSK-3β) were quantified by ELISA according to the manufacturer's instructions (catalog numbers ADI-900-144 and ADI-900-123A, Assay Designs, USA). Total and phosphoserine-845 GluR1 were quantified by Western blot.

GluR1 = assay: Total and phosphoserine-845 GluR1 by Western blot in medial prefrontal cortex; type: in vivo, rat; settings: 24 hrs after GLYX-13 3 mg/kg IV or ketamine 10 mg/kg IV
Excerpt: as §1

rats [6] = assay: Conditioned place preference; type: in vivo, rat; settings: GLYX-13 10 mg/kg IV; ketamine 10 mg/kg IV
Procedure: Animals were trained with GLYX-13 (10 mg/kg, IV), ketamine (10 mg/kg, IV), or saline vehicle (1 mL/kg, IV) utilizing an unbiased two-chamber conditioned place preference apparatus.

rats [7] = assay: Prepulse inhibition; type: in vivo, rat; settings: Sprague-Dawley rats; GLYX-13 10 mg/kg IV tested 15 min post injection; ketamine 10 mg/kg IP tested immediately
Procedure: Animals were given intravenous injections of GLYX-13 (10 mg/kg) or saline via chronic indwelling femoral vein cannulae and tested 15 min post injection, or intraperitoneal ketamine (10 mg/kg) or saline vehicle (1 mL/kg IV or IP respectively) and tested immediately post injection for prepulse inhibition.

β-catenin = assay: Total β-catenin protein level in medial prefrontal cortex; type: in vivo, rat; settings: 24 hrs after GLYX-13 3 mg/kg IV or ketamine 10 mg/kg IV

C[C@@H]([C@@H](O)c1ccc(O)cc1)N1CCC(O)(c2ccccc2)CC1 [CPC-101,606]
Hamilton Depression Rating Score [1]: significant reductions

O=c1[nH]c2cc(Cl)ccc2c(O)c1-c1cccc(Oc2ccccc2)c1 [L-701,324]
anticonvulsant effects relative to ataxia (therapeutic index) [2]: anticonvulsant effects at doses that produced ataxia

NS(=O)(=O)c1cccc2c1c([N+](=O)[O-])cc1nc(O)c(O)nc12 [NBQX, reference compound]
effect of NBQX pretreatment on the antidepressant-like effect of GLYX-13 (floating time) (rats [3]; NBQX 10 mg/kg IP before GLYX-13 3 mg/kg IV, tested 1 hr post dosing): blocked the antidepressant-like effect of GLYX-13

CNC1(c2ccccc2Cl)CCCCC1=O (stereo not drawn) [ketamine, reference compound]
suppression of operant responding (rates of responding) (rats [4]; IP, 30 mg/kg (higher dose)): suppress operant responding
ketamine-like discriminative stimulus effects (ketamine-lever selection) (rats [4]; IP, 5.6-30 mg/kg): dose-dependent increases in ketamine-lever selection
suppression of operant responding (rates of responding) (rats [4]; SC, 10 mg/kg (higher dose)): suppress operant responding
ketamine-like discriminative stimulus effects (ketamine-lever selection) (rats [4]; SC, 1-10 mg/kg): dose-dependent increases in ketamine-lever selection
phosphoserine-9 GSK-3β/total GSK-3β ratio [5]: reduced
Phosphoserine-845 GluR1/total GluR1 ratio (GluR1): increased
conditioned place preference, an indicator of abuse potential (rats [6]): induced conditioned place preference
prepulse inhibition, an indicator of dissociative effects (rats [7]): decreased prepulse inhibition
total β-catenin (β-catenin): reduced
Hamilton Depression Rating Score [1]: significant reductions
dissociative side effects (rats [3]; 10 mg/kg subcutaneous, testing 20 min post dosing): severe dissociative side effects
effect on floating times in the Porsolt test (rats [3]; Sprague Dawley rats, 10 mg/kg IP, 20-60 min post dosing): reduced floating times
